Measured values reported in paper PMC7559897, “Designed Antimicrobial Peptides Against Trauma-Related Cutaneous Invasive Fungal Wound Infections” (Journal of Fungi, 2020).
≈ marks a conversion by molar mass, not a printed value. Bridge positions count the residues as written; N and C are the ends. Square brackets hold non-standard residues; d marks the D form. Ends that are not written are not given here. Peptide text beside a SMILES is read from it. Orn = NCCC[C@H](N)C(=O)O

Tests used:
[1] = test system: Absidia corymbifera NRRL 6251; type: cell-based; conditions: NRRL 6251, 24 h
Method: (§1) Assays were performed by Trideum Biosciences (Frederick, MD, USA). Isolates were thawed from −80 °C storage and sub-cultured on trypticase soy agar plates at 37 °C prior to experimentation. A single colony was aseptically picked from the agar plate and released in 30 mL trypticase soy broth and incubated overnight at 37 °C incubator. Following which the bacterial culture was diluted to approximately 10^6 colony forming units (CFU)/mL using 2X cation adjusted Mueller–Hinton broth and added to the dAMP solutions (0, 2, 4, 8, 16, 32, 64, and 128 μg/mL) which had been formulated in water at 256 μg/mL and then serially diluted in media on 96-well pates. For fungal evaluation, potato dextrose broth and potato dextrose agar plates were used. The treated cultures were then incubated for 24 h at 37 °C and pathogen growth was measured by absorbance at 600 nm. Four replicas were included for each dAMP concentration. Each MIC was assigned to the lowest test agent concentration resulting in at least three out of four wells showing no growth based on an optical density (OD) reading of <0.1.

[2] = test system: Aspergillus flavus MYA-1004; type: cell-based; conditions: 24 h
Method: as §1

[3] = test system: Aspergillus flavus MYA-3651; type: cell-based; conditions: 24 h
Method: as §1

[4] = test system: Aspergillus fumigatus 9648; type: cell-based; conditions: 9648, 24 h
Method: as §1

[5] = test system: Aspergillus fumigatus 9651; type: cell-based; conditions: 9651, 24 h
Method: as §1

Candida albicans Y-326 = type: cell-based; conditions: Y-326, 24 h
Method: as §1

Candida albicans Y-6359 = type: cell-based; conditions: Y-6359, 24 h
Method: as §1

Candida krusei Y-27803 = type: cell-based; conditions: Y-27803, 24 h
Method: as §1

Candida krusei Y-27825 = type: cell-based; conditions: Y-27825, 24 h
Method: as §1

[6] = test system: Candida parapsilosis Y-1761; type: cell-based; conditions: Y-1761, 24 h
Method: as §1

[7] = test system: Candida parapsilosis Y-1763; type: cell-based; conditions: Y-1763, 24 h
Method: as §1

E. cloacae 6053 = type: cell-based; conditions: 6053, 24 h
Method: as §1

E. cloacae 6054 = type: cell-based; conditions: 6054, 24 h
Method: as §1

[8] = test system: Fusarium solani NRRL 28548; type: cell-based; conditions: NRRL 28548, 24 h
Method: as §1

[9] = test system: Mucor circinelloides NRRL 3631; type: cell-based; conditions: NRRL 3631, 24 h
Method: as §1

S. epidermis ATCC 51625 = type: cell-based; conditions: ATCC 51625, 24 h
Method: as §1

A. baumannii 6043 = type: cell-based, Acinetobacter baumannii; conditions: 6043, 24 h
Method: as §1

A. baumannii 6838 = type: cell-based, Acinetobacter baumannii; conditions: 6838, 24 h
Method: as §1

A. baumannii ATCC 17978 = type: cell-based, Acinetobacter baumannii; conditions: ATCC 17978, 24 h
Method: as §1

K. pneumonia 6069 = type: cell-based, Klebsiella pneumoniae; conditions: 24 h
Method: as §1

K. pneumonia ATCC 10031 = type: cell-based, Klebsiella pneumoniae; conditions: ATCC 10031, 24 h
Method: as §1

P. aeruginosa 6186 = type: cell-based, Pseudomonas aeruginosa; conditions: 6186, 24 h
Method: as §1

P. aeruginosa ATCC 19660 = type: cell-based, Pseudomonas aeruginosa; conditions: ATCC 19660, 24 h
Method: as §1

P. aeruginosa ATCC 27853 = type: cell-based, Pseudomonas aeruginosa; conditions: ATCC 27853, 24 h
Method: as §1

MRSA 6313 = type: cell-based, Staphylococcus aureus; conditions: 6313, 24 h
Method: as §1

MRSA 6381 = type: cell-based, Staphylococcus aureus; conditions: 6381, 24 h
Method: as §1

MRSA ATCC 33592 = type: cell-based, Staphylococcus aureus; conditions: ATCC 33592, 24 h
Method: as §1

S. aureus 6061 = type: cell-based, Staphylococcus aureus; conditions: 6061, 24 h
Method: as §1

S. aureus B-767 = type: cell-based, Staphylococcus aureus; conditions: B-767, 24 h
Method: as §1

[10] = test system: vulvovaginal candidiasis infection; conditions: rats with vulvovaginal candidiasis, oral; cited from earlier work
Source text: The dAMPs RP504, RP554 and RP557 were thus tested for their ability to treat a rodent vulvovaginal candidiasis infection. […] A daily dose with a 2% concentration lowered the CFU/sample by more than 4 logs compared to the con ...

Compound | MIC against Absidia corymbifera NRRL 6251 [1] | MIC against Aspergillus flavus MYA-1004 [2] | MIC against Aspergillus flavus MYA-3651 [3] | MIC against Aspergillus fumigatus 9648 [4] | MIC against Aspergillus fumigatus 9651 [5] | MIC against Candida albicans Y-326 (Candida albicans Y-326) | MIC against Candida albicans Y-6359 (Candida albicans Y-6359) | MIC against Candida krusei Y-27803 (Candida krusei Y-27803) | MIC against Candida krusei Y-27825 (Candida krusei Y-27825) | MIC against Candida parapsilosis Y-1761 [6] | MIC against Candida parapsilosis Y-1763 [7] | MIC against E. cloacae 6053 (E. cloacae 6053) | MIC against E. cloacae 6054 (E. cloacae 6054) | MIC against Fusarium solani NRRL 28548 [8] | MIC against Mucor circinelloides NRRL 3631 [9] | MIC against S. epidermis ATCC 51625 (S. epidermis ATCC 51625) | MIC against A. baumannii 6043 (A. baumannii 6043) | MIC against A. baumannii 6838 (A. baumannii 6838) | MIC against A. baumannii ATCC 17978 (A. baumannii ATCC 17978) | MIC against K. pneumonia 6069 (K. pneumonia 6069) | further results
CC[C@H](C)[C@H](NC(=O)[C@H](CCCN)NC(=O)[C@H](C)NC(=O)[C@H](CCCN)NC(=O)[C@H](CC(C)C)NC(=O)[C@H](CCCCN)NC(=O)[C@@H](NC(=O)[C@H](CCCCN)NC(=O)[C@@H](NC(=O)[C@H](CCCN)NC(=O)[C@H](C)NC(=O)[C@H](CCCN)NC(=O)[C@H](CC(C)C)NC(=O)[C@H](CCCN)NC(=O)[C@@H](N)Cc1ccccc1)[C@@H](C)CC)C(C)C)C(=O)N[C@@H](CCCN)C(=O)N[C@@H](CC(C)C)C(N)=O [RP555] (H-F[Orn]L[Orn]A[Orn]IKVKL[Orn]A[Orn]I[Orn]L-NH2) | 4 µg/mL (≈ 2.09 µM) | >128 µg/mL | 128 µg/mL (≈ 66.9 µM) | 64 µg/mL (≈ 33.5 µM) | 64 µg/mL (≈ 33.5 µM) | 32 µg/mL (≈ 16.7 µM) | 32 µg/mL (≈ 16.7 µM) | 32 µg/mL (≈ 16.7 µM) | 32 µg/mL (≈ 16.7 µM) | 32 µg/mL (≈ 16.7 µM) | 16 µg/mL (≈ 8.37 µM) | 2 µg/mL (≈ 1.05 µM) | 4 µg/mL (≈ 2.09 µM) | 2 µg/mL (≈ 1.05 µM) | 64 µg/mL (≈ 33.5 µM) | 2 µg/mL (≈ 1.05 µM) | 16 µg/mL (≈ 8.37 µM) | 4 µg/mL (≈ 2.09 µM) | 4 µg/mL (≈ 2.09 µM) | 16 µg/mL (≈ 8.37 µM) | MIC against K. pneumonia ATCC 10031 (K. pneumonia ATCC 10031): 4 µg/mL (≈ 2.09 µM); MIC against P. aeruginosa 6186 (P. aeruginosa 6186): 4 µg/mL (≈ 2.09 µM); MIC against P. aeruginosa ATCC 19660 (P. aeruginosa ATCC 19660): 8 µg/mL (≈ 4.18 µM); MIC against P. aeruginosa ATCC 27853 (P. aeruginosa ATCC 27853): 4 µg/mL (≈ 2.09 µM); MIC against MRSA 6313 (MRSA 6313): 16 µg/mL (≈ 8.37 µM); MIC against MRSA 6381 (MRSA 6381): 16 µg/mL (≈ 8.37 µM); MIC against MRSA ATCC 33592 (MRSA ATCC 33592): 8 µg/mL (≈ 4.18 µM); MIC against S. aureus 6061 (S. aureus 6061): 16 µg/mL (≈ 8.37 µM); MIC against S. aureus B-767 (S. aureus B-767): 8 µg/mL (≈ 4.18 µM)
OC(Cn1cncn1)(Cn1cncn1)c1ccc(F)cc1F [fluconazole, reference compound] |  |  |  |  |  |  |  |  |  |  |  |  |  |  |  |  |  |  |  |  | reduction in tissue candidiasis infection (in words) [10]: non-significant reduction
CSCC[C@@H]1NC(=O)[C@H](C(C)C)NC(=O)[C@H](C(C)C)NC(=O)[C@H](CC(C)C)NC(=O)[C@H](Cc2c[nH]c3ccccc23)NC(=O)[C@H](C(C)C)NC(=O)[C@@H](NC(=O)[C@H](Cc2c[nH]c3ccccc23)NC(=O)[C@@H](N)CCCNC(=N)N)CSSC[C@@H](C(=O)N[C@@H](CCCCN)C(=O)N[C@@H](CCCCN)C(N)=O)NC1=O [RP513] (H-RWCVWLVVMCKK-NH2; disulfide 3-10) | 32 µg/mL (≈ 20.7 µM) | >128 µg/mL | 128 µg/mL (≈ 82.7 µM) | 128 µg/mL (≈ 82.7 µM) | >128 µg/mL | 64 µg/mL (≈ 41.3 µM) | 64 µg/mL (≈ 41.3 µM) | 64 µg/mL (≈ 41.3 µM) | 64 µg/mL (≈ 41.3 µM) | >128 µg/mL | >128 µg/mL | >128 µg/mL | >128 µg/mL | 16 µg/mL (≈ 10.3 µM) | 32 µg/mL (≈ 20.7 µM) | >128 µg/mL | 64 µg/mL (≈ 41.3 µM) | 128 µg/mL (≈ 82.7 µM) | >128 µg/mL | 128 µg/mL (≈ 82.7 µM) | MIC against K. pneumonia ATCC 10031 (K. pneumonia ATCC 10031): 128 µg/mL (≈ 82.7 µM); MIC against P. aeruginosa 6186 (P. aeruginosa 6186): >128 µg/mL; MIC against P. aeruginosa ATCC 19660 (P. aeruginosa ATCC 19660): >128 µg/mL; MIC against P. aeruginosa ATCC 27853 (P. aeruginosa ATCC 27853): >128 µg/mL; MIC against MRSA 6313 (MRSA 6313): >128 µg/mL; MIC against MRSA 6381 (MRSA 6381): >128 µg/mL; MIC against MRSA ATCC 33592 (MRSA ATCC 33592): >128 µg/mL; MIC against S. aureus 6061 (S. aureus 6061): >128 µg/mL; MIC against S. aureus B-767 (S. aureus B-767): >128 µg/mL
FKLRAKIKVRLRAKIKL [D4E1, reference compound] | 2 µg/mL | 128 µg/mL | 128 µg/mL | 128 µg/mL | 64 µg/mL | 64 µg/mL | 64 µg/mL | 64 µg/mL | 64 µg/mL | 64 µg/mL | 64 µg/mL | 8 µg/mL | 4 µg/mL | 2 µg/mL | 128 µg/mL | 4 µg/mL | >128 µg/mL | 8 µg/mL | 16 µg/mL | 16 µg/mL | MIC against K. pneumonia ATCC 10031 (K. pneumonia ATCC 10031): 32 µg/mL; MIC against P. aeruginosa 6186 (P. aeruginosa 6186): 16 µg/mL; MIC against P. aeruginosa ATCC 19660 (P. aeruginosa ATCC 19660): 32 µg/mL; MIC against P. aeruginosa ATCC 27853 (P. aeruginosa ATCC 27853): 16 µg/mL; MIC against MRSA 6313 (MRSA 6313): 8 µg/mL; MIC against MRSA 6381 (MRSA 6381): 8 µg/mL; MIC against MRSA ATCC 33592 (MRSA ATCC 33592): 8 µg/mL; MIC against S. aureus 6061 (S. aureus 6061): 8 µg/mL; MIC against S. aureus B-767 (S. aureus B-767): 4 µg/mL
